The source of these data is patent US4599336A, “Derivatives of (E)-3-(4-oxo-4H-quinazolin-3-yl)-2-propenamide” (Hoffmann-La Roche Inc., priority 1983, dated 1986).

For assay [1], the system named is SRS-A-induced constriction of the guinea pig ileum. In words: Guinea Pig Ileum, In Vitro (inhibition of SRS-A-induced constriction). The assay is classed as cell-based. The note with it: Cavia porcellus; SRS-A-induced constriction; in vitro; read-out: Guinea Pig Ileum, IC50. The protocol: The guinea pig ileum bioassay system has been described by Orange and Austen, Adv. Immunol. […] A 1.5 cm segment is removed from animals weighing 300-400 g. and suspended in an organ bath containing 10 ml. of Tyrodes solution with 10^-6 M atropine sulfate and 10^-6 M pyrilamine maleate. […] The SRS-A utilized in this screen is obtained by challenging chopped lung fragments from actively sensitized guinea pigs with egg albumin, in vitro. A dose-response curve to SRS-A challenge is established for the ileum. […] The drug concentration which inhibits, by 50%, the SRS-A-induced constriction of the guinea pig ileum is determined.

For another assay, the target named is T1, TXA2 synthase (Homo sapiens, UniProt P24557).
T1 construct: using microsomal fractions from human platelets as enzyme source; from tissue; host or cells: human platelets, microsomal fraction
T1 sequence (P24557 1-533): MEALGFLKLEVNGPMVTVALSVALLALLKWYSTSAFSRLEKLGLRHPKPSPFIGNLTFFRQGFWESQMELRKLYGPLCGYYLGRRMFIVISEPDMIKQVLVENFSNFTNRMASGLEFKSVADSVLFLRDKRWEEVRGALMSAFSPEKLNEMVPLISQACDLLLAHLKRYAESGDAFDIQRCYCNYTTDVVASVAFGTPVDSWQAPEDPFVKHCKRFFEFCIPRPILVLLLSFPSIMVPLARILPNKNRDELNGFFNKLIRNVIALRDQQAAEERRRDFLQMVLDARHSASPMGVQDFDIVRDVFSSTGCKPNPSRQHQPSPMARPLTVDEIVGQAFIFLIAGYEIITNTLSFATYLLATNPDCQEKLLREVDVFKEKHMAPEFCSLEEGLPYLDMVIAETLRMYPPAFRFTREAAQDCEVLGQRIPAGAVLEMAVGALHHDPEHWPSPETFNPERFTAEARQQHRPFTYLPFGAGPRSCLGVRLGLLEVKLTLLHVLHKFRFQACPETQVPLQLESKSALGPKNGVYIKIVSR
The assay is described as follows: Thromboxane Synthase Inhibition, In Vitro. The class given is biochemical. Particulars: human platelet microsomes; for inhibition at 0.1 µM: at 10^-7 M. On the procedure: TXA2 synthase activity is measured by following the conversion of ^14 C-prostaglandin endoperoxide (PGH2) to ^14 C-thromboxane A2 (TXA2) using microsomal fractions from human platelets as enzyme source. In the aqueous incubation medium, the TXA2 decomposes rapidly into TXB2. The amount of TXA2 synthase is adjusted so that under the conditions of the assay approximately 80-90% of the substrate, PGH2, is converted to product in control tubes. To prepare ^14 C--PGH2, ^14 C--AA (50-60 mCi/mmole; Rose Chem.) is incubated with sheep seminal vesicular gland microsomes for 1.5 minutes at 37° C. and then the ^14 C--PGH2 is extracted with diethylether, purified on columns of Sephadex LH-20 or silicic acid, and stored in acetone at -70° C. Incubations are done as follows. Sufficient ^14 C--PGH2 to yield a final substrate concentration of 10 μM (30,000 cpm) is added to the incubation tubes and then the acetone is removed under nitrogen. The tubes are placed in an ice bath and then 215 μl of ice cold phosphate buffered saline, 10 μl of ethanol (control) or of test drug in ethanol, and 25 μl of the microsomal suspension are added with mixing in that order as rapidly as possible. The tubes are incubated at 22° C. for 2 minutes, the reaction is stopped and then the radioactive products and the uncoverted PGH2 are extracted and analyzed by thin layer chromatography. […] The amount of ^14 C--PGH2 converted to products was used as a measure of TXA2 synthase activity. Inhibitors were tested initially at a final concentration of 100 μM. Results obtained with representative compounds of the present invention in this assay are summarized hereafter in Table I.

The target in assay [2] is T2, PAF receptor (dog platelets) (Canis lupus familiaris, UniProt A0A8I3NSH0).
T2 construct: followed by 2×10^7 dog platelets; from tissue; host or cells: dog platelets, washed, intact
T2 sequence (A0A8I3NSH0 1-343): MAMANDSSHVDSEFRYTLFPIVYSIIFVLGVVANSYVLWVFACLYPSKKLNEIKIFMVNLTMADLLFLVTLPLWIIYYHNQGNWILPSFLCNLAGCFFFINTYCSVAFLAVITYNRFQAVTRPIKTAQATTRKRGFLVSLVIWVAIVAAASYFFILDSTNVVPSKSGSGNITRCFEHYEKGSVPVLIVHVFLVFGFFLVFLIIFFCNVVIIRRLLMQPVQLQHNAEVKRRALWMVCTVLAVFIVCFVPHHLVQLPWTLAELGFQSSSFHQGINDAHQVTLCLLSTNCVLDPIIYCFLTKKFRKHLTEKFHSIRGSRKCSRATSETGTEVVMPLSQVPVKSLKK
The assay is described as follows: PAF Radioreceptor Binding Assay. The note with it: 3H-PAF. On the procedure: Platelet rich plasma is prepared by centrifugation of citrate-treated dog blood. Acidification to pH 6.5 with 0.15M citric acid and centrifugation for 10 minutes at 1000 g yields a platelet pellet which is then washed by resuspension in EDTA-Phosphate Buffered Saline (PBS) and recentrifuged. The washed platelet preparation is adjusted to 2×10^7 platelets/50 μl in 0.1% BSA-PBS.
To a […] microfuge tube containing 50 μl silicone oil (specific gravity 1.023) is added buffer, PAF standard or analog, or an extract to bring the aqueous volume to 150 μl. 50 μl of ^3 H-PAF (10,000 cpm, 45 Ci/mM) is added followed by 2×10^7 dog platelets. After mixing, incubating for 10 minutes at room temperature, and centrifuging for 1 minute in a Beckman Microfuge B (8000 g), the pellet is removed by clipping off the tip of the tube, solubilizing the platelets with 200 μl of 50% methanol, and counting in 10 ml of Aquasol. […] Results obtained with representative compounds of the present invention in this assay are summarized hereinafter in Table I.

SMILES strings stand for the structures. Some results are limits rather than exact numbers.

Regarding `CC(C)c1ccc2ncn(/C=C/C(=O)NCCCCc3ccccn3)c(=O)c2c1` [drawing 17], the IC50 was > 10000 nM in assay [1], > 10000 nM at TXA2 synthase (read-out: TXA2 Synthase Inhibition (concentration bound printed in the % column)) and > 1000 nM in assay [2].
The inhibition is the drop in the measured response relative to a control, in per cent. For the molecule `CC(C)c1ccc2ncn(/C=C/C(=O)NCCCCn3ccnc3)c(=O)c2c1` [drawing 15], the results for the IC50 in assay [1] and in assay [2] were 5000 nM and > 1000 nM, respectively. Also, at 0.1 µM the inhibition against TXA2 synthase was 72%.
The matching figures for `CC(C)c1ccc2ncn(/C=C/C(=O)NCCCCc3cccnc3)c(=O)c2c1` [drawing 12]: 1000 nM, 650 nM and 48%.
